Patent US8828997B2, “2,3-dihydro-1H-imidazo(1,2-a)pyrimidin-5-one derivatives, preparation thereof, and pharmaceutical use thereof” (Sanofi, priority 2009, dated 2014)
pIC50: −log10 of the molar value.

Legend:
Format in all cases: cell-based
[1] = system: translocation of the LC3 protein in Hela GFP-LC3 cells; assay: Translocation of the LC3 protein in Hela human cells measured by image analysis cytometry (test C, autophagy); conditions: Homo sapiens, HeLa, 2 h, EBSS + 10 μM hydroxychloroquine, cells with LC3 granulations, absolute IC50
Outline: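 HeLa clone stably expressing GFP-LC3, starved in EBSS with 10 μM hydroxychloroquine plus compound (10 nM to 1 μM range, 0.1% DMSO) for 2 h at 37 °C. After PFA fixation and Hoechst staining, LC3 translocation read by image analysis cytometry; IC50 from dose-response curves, mean of 2 independent experiments.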

[2] = system: AKT protein phosphorylated on serine 473 (pAKT-S473) in PC3 human prostate carcinoma cells; assay: pAKT expression in PC3 human prostate carcinoma cells measured by western blotting (test A); conditions: PC-3, 1 to 2 h incubation, absolute IC50
Method: The inhibitory activity of the molecules on AKT phosphorylation is measured either by western blotting using the technique described below, or by the MSD Multi-spot Biomarker detection technique from Meso Scale Discovery also described below.
Study of pAKT Expression in PC3 Human Prostate Carcinoma Cells Measured by Western Blotting (test A):
This test is based on measuring the expression of the AKT protein phosphorylated on serine 473. The phosphorylation of AKT (pAKT) is measured by western blotting in the PC3 human prostate carcinoma line (ATCC CRL-1435), using an antibody that specifically recognises pAKT-S473.
On day 1, the PC3 cells are seeded into 6-well plates (TPP, #92006) at the concentration of 0.8×10^6 cells/well in 1800 μl of DMEM medium (DMEM Gibco #11960-044) containing 10% of foetal calf serum (SVF Gibco, #10500-056) and 1% glutamine (L-Glu Gibco #25030-024), and incubated at 37° C., 5% CO2, overnight.
On day 2, the cells are incubated in the presence or absence of the test products for 1 to 2 hours at 37° C. in the presence of 5% CO2. The molecules, diluted in dimethyl sulphoxide (DMSO Sigma #D2650), are added from a 10-times concentrated stock solution, the final percentage of DMSO being 0.1%. The molecules are tested either at a single concentration of less than or equal to 10 μM, or at increasing concentrations in a range that can extend from less than 1 nM to 10 μM.
After this incubation, the cells are lysed for the preparation of the proteins. After the culture medium has been drawn off, the cells are rinsed with 1 ml of PBS (DPBS Gibco, #14190-094), recovered by scraping in 200 μl of complete HNTG buffer and transferred into a 96-well plate (Greiner #651201), and lysed for 1 h on ice. The HNTG buffer is composed of the following mixture: 50 mM hepes, 150 mM NaCl, 1% triton, 10% glycerol, with extemporaneous addition of one Mini Protease Inhibitor Cocktail tablet (Roche 1836153) and of one Phosphatase Inhibitor Cocktail tablet (Roche104906837001) per 10 ml of buffer.
The lysate is centrifuged for 10 min at 6000 rpm. 155 μl of supernatant are recovered. 150 μl are incubated for denaturation for 5 min at 95° C. in the presence of 4× NuPAGE LDS Sample Buffer diluted 4-fold (InVitrogen ref NP0007) and of 10× NuPAGE Sample Reducing Agent diluted 10-fold (InVitrogen ref NP0009). These samples are then frozen at −20° C. 5 μl are assayed by the microBCA technique according to the technical bulletin of the MicroBCA Protein Assay Kit (Pierce #23235).
For protein separation, 20 μg of proteins are loaded on to a NU-PAGE 4-12% Bis Tris Gel 12 well (InVitrogen ref NP0322BOX) and the migration is carried out for 1 h 30 in 20× NU-PAGE MOPS SDS Running Buffer diluted 20-fold (InVitrogen ref NP0001), at 150 volts.
The gel is then transferred on to an Invitrolon PVDF membrane (Invitrogen #LC2007) permeabilised before and after a few seconds in ethanol (Ethanol Fischer Scientific #E/0600DF/15).
The transfer is carried out in a Biorad tank at 30 volts overnight or at 60 volts for 3 hours, in the presence of 20× NUPAGE Transfer Buffer diluted 20-fold (InVitrogen ref NP0006).
The membrane is then saturated in saturating solution composed of TBS (10× Tris Buffered Saline, Sigma #T5912, diluted 10-fold), 0.1% Tween 20 (Sigma #P5927) and 3% BSA (Bovine Albumin Serum Fraction V, Sigma #A4503) for 6 h after overnight transfer or else for 1 h after transfer for a period of 3 h.
The primary antibodies are diluted to 1/1000 for the anti-phospho AKT-Ser473 antibody (1931-12, rabbit monoclonal, cat#4058 from Cell Signaling Technology Abcam), in saturating solution composed of PBS, 0.1% Tween 20 and 3% BSA, and then shaken overnight at 4° C.
Two rinses for 5 min in washing solution composed of TBS and 0.1% Tween 20 are carried out before hybridisation of the secondary antibodies. […]

[3] = system: P. falciparum (highly chloroquine-resistant strain Fcm29-Cameroon); assay: Antimalarial activity test (radioactive micromethod of Desjardins, tritiated hypoxanthine incorporation); conditions: Plasmodium falciparum, Erythrocyte, infected human erythrocytes, 48 h
Outline: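 P. falciparum cultured in infected human erythrocytes (2% haematocrit, 1.5% parasitaemia) in RPMI 1640 with 5% human serum and 1% DMSO, exposed to compound for 48 h at 37 °C, 5% CO2. Tritiated hypoxanthine added at 24 h; growth inhibition versus drug-free incorporation, reported as % at 1 μM and 0.1 μM.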

SMILES	pIC50 [1]	pIC50 [2]	inhibition at 0.1 µM [3] [%]	inhibition at 1 µM [3] [%]
CC(Cc1ccccc1)N1c2nc(N3CCOCC3)cc(=O)n2C[C@@]1(C)C(F)(F)F (single isomer, unassigned) [Example 12, (2S)-2-Methyl-1-((R) or (S)-1-methyl-2-phenylethyl)-7-morpholin-4-yl-2-trifluoromethyl-2,3-dihydro-1H-imidazo[1,2-a]pyrimidin-5-one]	6.71	7.11		
C[C@@]1(C(F)(F)F)Cn2c(nc(N3CCOCC3)cc2=O)N1Cc1ccccc1 [Example 3, (S)-1-Benzyl-2-methyl-7-morpholin-4-yl-2-trifluoromethyl-2,3-dihydro-1H-imidazo[1,2-a]pyrimidin-5-one]	6.31	6.20	15	95
C[C@@]1(C(F)(F)F)Cn2c(nc(N3CCOCC3)cc2=O)N1CCc1ccccc1 [Example 4, (S)-2-Methyl-7-morpholin-4-yl-1-phenethyl-2-trifluoromethyl-2,3-dihydro-1H-imidazo[1,2-a]pyrimidin-5-one]	6.97	7.60	54	97
C[C@@]1(C(F)(F)F)Cn2c(nc(N3CCOCC3)cc2=O)N1CCCc1ccccc1 [Example 5, (S)-2-Methyl-7-morpholin-4-yl-1-(3-phenylpropyl)-2-trifluoromethyl-2,3-dihydro-1H-imidazo[1,2-a]pyrimidin-5-one]	7.14	7.52		
C[C@@]1(C(F)(F)F)Cn2c(nc(N3CCOCC3)cc2=O)N1CCOc1ccccc1 [Example 6, (S)-2-Methyl-7-morpholin-4-yl-1-(2-phenoxyethyl)-2-trifluoromethyl-2,3-dihydro-1H-imidazo[1,2-a]pyrimidin-5-one]	7.09	5.78		

Continued by rising pIC50 [1], values first:

pIC50 [1]	pIC50 [2]	SMILES	inhibition at 0.1 µM [3] [%]	inhibition at 1 µM [3] [%]
7.14	6.92	C[C@@]1(C(F)(F)F)Cn2c(nc(N3CCOCC3)cc2=O)N1CCc1ccc(N2CCOCC2)cc1 [Example 15, (S)-2-Methyl-7-morpholin-4-yl-1-[2-(4-morpholin-4-ylphenyl)ethyl]-2-trifluoromethyl-2,3-dihydro-1H-imidazo[1,2-a]pyrimidin-5-one]	39	101
7.51	7.80	C[C@@]1(C(F)(F)F)Cn2c(nc(N3CCOCC3)cc2=O)N1C[C@@H](O)c1ccccc1 [Example 10]	38	97
7.89	7.82	C[C@@H](CN1c2nc(N3CCOCC3)cc(=O)n2C[C@@]1(C)C(F)(F)F)c1ccccc1 [Example 8, (S)-2-Methyl-7-morpholin-4-yl-1-((R)-2-phenylpropyl)-2-trifluoromethyl-2,3-dihydro-1H-imidazo[1,2-a]pyrimidin-5-one]		
